Measurements taken from EP1534716B1, “HETEROBICYCLIC PYRAZOLE DERIVATIVES AS KINASE INHIBITORS” (priority 2002, dated 2004).

Key:
Assay type in all cases: biochemical
Aurora-2 = biological target: T1, Aurora-2 (Homo sapiens, UniProt O14965); assay: Inhibition assay of Aurora-2 activity (SPA); settings: 10 µM ATP, 60 minutes at room temperature
T1 sequence (O14965 1-403): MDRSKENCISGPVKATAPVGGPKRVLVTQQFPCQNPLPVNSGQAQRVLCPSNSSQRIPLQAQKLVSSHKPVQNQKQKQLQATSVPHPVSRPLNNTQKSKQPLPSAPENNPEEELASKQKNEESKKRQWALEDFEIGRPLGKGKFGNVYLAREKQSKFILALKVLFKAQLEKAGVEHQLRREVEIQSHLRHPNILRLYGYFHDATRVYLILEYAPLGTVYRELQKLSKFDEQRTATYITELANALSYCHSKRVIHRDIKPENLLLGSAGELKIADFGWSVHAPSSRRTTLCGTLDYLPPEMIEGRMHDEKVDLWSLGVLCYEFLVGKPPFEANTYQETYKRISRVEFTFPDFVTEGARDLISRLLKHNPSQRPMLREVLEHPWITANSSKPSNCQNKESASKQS
Protocol: (§1) The inhibiting activity of putative cdk/cyclin inhibitors and the potency of selected compounds is determined through a method of assay based on the use of the SPA technology (Amersham Pharmacia Biotech).
(§2) The assay consists of the transfer of radioactivity labelled phosphate moiety by the kinase to a biotinylated substrate. The resulting 33P-labelled biotinylated product is allowed to bind to streptavidin-coated SPA beads (biotin capacity 130 pmol/mg), and light emitted was measured in a scintillation counter.
(§3) Experimental data were analyzed by the computer program GraphPad Prizm using the four parameter logistic equation: [formula] where x is the logarithm of the inhibitor concentration, y is the response; y starts at bottom and goes to top with a sigmoid shape.
Inhibition assay of Aurora-2 activity
After 60 minutes at room temperature incubation, reaction was stopped and biotinylated peptide captured by adding 100 µl of bead suspension.
Stratification: 100 µl of CsC12 5 M were added to each well and let stand 4 hour before radioactivity was counted in the Top-Count instrument.
IC50 determination: see above

PAK4 = PAK4 (Homo sapiens, UniProt O96013); assay: PAK4 inhibition
cdk2/Cyclin A = cdk2/Cyclin A (Homo sapiens, UniProt P24941); assay: Inhibition assay of cdk2/Cyclin A activity (SPA); settings: 10 µM ATP, 60 min at room temperature
Protocol: as §1, §2
Inhibition assay of cdk2/Cyclin A activity
Kinase reaction: 4 µM in house biotinylated histone H1 (Sigma # H-5505) substrate, 10 µM ATP (0.1 microCi P^33γ-ATP), 1.1 nM Cyclin A/CDK2 complex, inhibitor in a final volume of 30 µl buffer (TRIS HCl 10 mM pH 7.5, MgCl2 10 mM, DTT 7.5 mM + 0.2 mg/ml BSA) were added to each well of a 96 U bottom. After incubation for 60 min at room temperature, the reaction was stopped by addition of 100 µl PBS buffer containing 32 mM EDTA, 500 µM cold ATP, 0.1% Triton X100 and 10mg/ml streptavidin coated SPA beads. After 20 min incubation, 110 µL of suspension were withdrawn and transferred into 96-well OPTIPLATEs containing 100 µl of 5M CsCl. After 4 hours, the plates were read for 2 min in a Packard TOP-Count radioactivity reader.
as §3

Chain of PAK4 (O96013 whole entry, species assumed): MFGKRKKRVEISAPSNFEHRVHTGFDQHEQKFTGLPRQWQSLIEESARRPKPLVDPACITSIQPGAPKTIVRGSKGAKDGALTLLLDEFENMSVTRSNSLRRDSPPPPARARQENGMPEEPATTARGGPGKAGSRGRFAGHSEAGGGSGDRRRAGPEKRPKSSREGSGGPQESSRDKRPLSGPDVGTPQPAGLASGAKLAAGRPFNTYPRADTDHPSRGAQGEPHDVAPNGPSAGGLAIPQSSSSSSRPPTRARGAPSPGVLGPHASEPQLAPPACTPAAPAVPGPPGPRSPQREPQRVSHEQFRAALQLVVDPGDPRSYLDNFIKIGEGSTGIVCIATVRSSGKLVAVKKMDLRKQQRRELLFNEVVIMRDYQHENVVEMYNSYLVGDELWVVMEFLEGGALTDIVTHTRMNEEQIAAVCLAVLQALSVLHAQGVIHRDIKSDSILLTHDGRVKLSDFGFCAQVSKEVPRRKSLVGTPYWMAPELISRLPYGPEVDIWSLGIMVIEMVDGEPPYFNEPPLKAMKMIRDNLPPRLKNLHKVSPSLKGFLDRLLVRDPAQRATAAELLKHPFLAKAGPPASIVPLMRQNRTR

Compound | IC50 (Aurora-2) | IC50 (PAK4) | IC50 (cdk2/Cyclin A)
O=C(Nc1n[nH]c2cc(C(=O)O)oc12)c1ccc(F)cc1 [Compound 163, 3-[(4-fluorobenzoyl)amino]-1H-furo[3,2-c]pyrazole-5-carboxylic acid] | < 0.1 µM | < 0.5 µM | 
CCCCNC(=O)c1cc2[nH]nc(NC(=O)C3CC3)c2s1 [Compound 85, N-butyl-3-[(cyclopropylcarbonyl)amino]-1H-thieno[3,2-c]pyrazole-5-carboxamide] |  |  | < 0.5 µM
O=C(Nc1n[nH]c2cc(C(=O)NCc3ccc(F)cc3)sc12)c1ccc(N2CCOCC2)cc1 [Compound 133, N-(4-fluorobenzyl)-3-[(4-morpholin-4-ylbenzoyl)amino]-1H-thieno[3,2-c]pyrazole-5-carboxamide] | < 0.1 µM | < 0.5 µM | 
Cc1cccc(Cl)c1CNC(=O)c1cc2[nH]nc(NC(=O)c3ccc(N4CCN(C)CC4)cc3)c2s1 [Compound 122, N-(2-chloro-6-methylbenzyl)-3-{[4-(4-methylpiperazin-1-yl)benzoyl]amino}-1H-thieno[3,2-c]pyrazole-5-carboxamide bis(trifluoroacetate)] | < 0.1 µM |  | 
C=CCNC(=O)c1cc2[nH]nc(NC(=O)NCc3ccccc3)c2s1 [Compound 87, N-allyl-3-{[(benzylamino)carbonyl]amino}-1H-thieno[3,2-c]pyrazole-5-carboxamide] |  |  | < 0.5 µM
O=C(Nc1n[nH]c2cc(C(=O)NC(c3ccccc3)c3ccccc3)sc12)c1ccc(N2CCOCC2)cc1 [Compound 128, N-benzhydryl-3-[(4-morpholin-4-ylbenzoyl)amino]-1H-thieno[3,2-c]pyrazole-5-carboxamide] | < 0.1 µM |  | 
CN1CCN(C(=O)c2cc3[nH]nc(NC(=O)c4ccc(F)cc4)c3o2)CC1 [Compound 167, 4-fluoro-N-{5-[(4-methylpiperazin-1-yl)carbonyl]-1H-furo[3,2-c]pyrazol-3-yl}benzamide] |  |  | < 0.5 µM
CCCCNC(=O)c1cc2[nH]nc(NC(=O)c3cccs3)c2s1 [Compound 79, N-butyl-3-[(thien-2-ylcarbonyl)amino]-1H-thieno[3,2-c]pyrazole-5-carboxamide] | < 0.1 µM |  | < 0.5 µM
CN1CCN(c2ccc(C(=O)Nc3n[nH]c4cc(C(=O)NCc5ccccc5Cl)sc34)cc2)CC1 [Compound 106, N-(2-chlorobenzyl)-3-{[4-(4-methylpiperazin-1-yl)benzoyl]amino}-1H-thieno[3,2-c]pyrazole-5-carboxamide] | < 0.1 µM |  | 
CC(NC(=O)c1cc2[nH]nc(NC(=O)c3ccc(N4CCOCC4)cc3)c2s1)c1ccc(Cl)cc1 (centres unmarked) [Compound 130, N-[1-(4-chlorophenyl)ethyl]-3-[(4-morpholin-4-ylbenzoyl)amino]-1H-thieno[3,2-c]pyrazole-5-carboxamide] | < 0.1 µM |  | 
COC[C@@H](NC(=O)c1cc2[nH]nc(NC(=O)c3ccc(N4CCOCC4)cc3)c2s1)c1ccccc1 [Compound 129, N-[(1S)-2-methoxy-1-phenylethyl]-3-[(4-morpholin-4-ylbenzoyl)amino]-1H-thieno[3,2-c]pyrazole-5-carboxamide] | < 0.1 µM | < 0.5 µM | 
CCCCNC(=O)c1cc2[nH]nc(NC(=O)CCCC)c2s1 [Compound 84, N-butyl-3-(pentanoylamino)-1H-thieno[3,2-c]pyrazole-5-carboxamide] |  |  | < 0.5 µM
Cc1c(C(=O)NCc2ccc(F)cc2)sc2c(NC(=O)c3cccs3)n[nH]c12 [Compound 146, N-(4-fluorobenzyl)-6-methyl-3-[(thien-2-ylcarbonyl)amino]-1H-thieno[3,2-c]pyrazole-5-carboxamide] | < 0.1 µM |  | < 0.5 µM
CN1CCN(c2ccc(C(=O)Nc3n[nH]c4cc(C(=O)N(C)Cc5ccccc5)sc34)cc2)CC1 [Compound 113, N-benzyl-N-methyl-3-{[4-(4-methylpiperazin-1-yl)benzoyl]amino}-1H-thieno[3,2-c]pyrazole-5-carboxamide] | < 0.1 µM |  | 
Cc1c(C(=O)NCc2ccc(F)cc2)sc2c(NC(=O)c3ccc(F)cc3)n[nH]c12 [Compound 145, 3-[(4-fluorobenzoyl)amino]-N-(4-fluorobenzyl)-6-methyl-1H-thieno[3,2-c]pyrazole-5-carboxamide] |  |  | < 0.5 µM
CCc1cccc(CC)c1NC(=O)c1cc2[nH]nc(NC(=O)c3ccc(N4CCN(C)CC4)cc3)c2s1 [Compound 107, N-(2,6-diethylphenyl)-3-{[4-(4-methylpiperazin-1-yl)benzoyl]amino}-1H-thieno[3,2-c]pyrazole-5-carboxamide] | < 0.1 µM |  | 
Cc1cccc(Cl)c1NC(=O)c1cc2[nH]nc(NC(=O)c3ccc(N4CCN(C)CC4)cc3)c2s1 [Compound 109, N-(2-chloro-6-methylphenyl)-3-{[4-(4-methylpiperazin-1-yl)benzoyl]amino}-1H-thieno[3,2-c]pyrazole-5-carboxamide] | < 0.1 µM |  | 
C[C@@H](NC(=O)c1cc2[nH]nc(NC(=O)c3ccc(CN4CCOCC4)o3)c2s1)c1ccccc1 [Compound 82, 3-{[5-(morpholin-4-ylmethyl)-2-furoyl]amino}-N-[(1R)-1-phenylethyl]-1H-thieno[3,2-c]pyrazole-5-carboxamide] | < 0.1 µM |  | 
O=C(Nc1n[nH]c2cc(C(=O)NCc3cccc(F)c3)sc12)c1ccc(N2CCOCC2)cc1 [Compound 132, N-(3-fluorobenzyl)-3-[(4-morpholin-4-ylbenzoyl)amino]-1H-thieno[3,2-c]pyrazole-5-carboxamide] | < 0.1 µM | < 0.5 µM | 
O=C(Nc1n[nH]c2cc(C(=O)NCc3ccccc3)sc12)c1cc(F)cc(F)c1 [Compound 65, N-benzyl-3-[(3,5-difluorobenzoyl)amino]-1H-thieno[3,2-c]prazole-5-carboxamide] |  |  | < 0.5 µM
CN1CCN(c2ccc(C(=O)Nc3n[nH]c4cc(C(=O)NCc5ccc(Cl)cc5)sc34)cc2)CC1 [Compound 97, N-(4-chlorobenzyl)-3-{[4-(4-methylpiperazin-1-yl)benzoyl]amino}-1H-thieno[3,2-c]pyrazole-5-carboxamide] | < 0.1 µM |  | 
Cc1cccc(C)c1NC(=O)c1cc2[nH]nc(NC(=O)c3ccc(N4CCN(C)CC4)cc3)c2s1 [Compound 108, N-(2,6-dimethylphenyl)-3-{[4-(4-methylpiperazin-1-yl)benzoyl]amino}-1H-thieno[3,2-c]pyrazole-5-carboxamide] | < 0.1 µM |  | 
CN1CCN(C(=O)c2cc3[nH]nc(NC(=O)c4ccc(F)cc4)c3s2)CC1 [Compound 63, 4-fluoro-N-{5-[(4-methylpiperazin-1-yl)carbonyl]-1H-thieno[3,2-c]pyrazol-3-yl}benzamide] |  |  | < 0.5 µM
CN1CCN(c2ccc(C(=O)Nc3n[nH]c4cc(C(=O)NCc5ccc(C(F)(F)F)cc5)sc34)cc2)CC1 [Compound 104, 3-{[4-(4-methylpiperazin-1-yl)benzoyl]amino}-N-[4-(trifluoromethyl)benzyl]-1H-thieno[3,2-c]pyrazole-5-carboxamide] | < 0.1 µM |  | 
CCNC(=O)c1cc2[nH]nc(NC(=O)c3ccc(C(C)(C)C)cc3)c2s1 [Compound 66, 3-[(4-tert-butylbenzoyl)amino]-N-ethyl-1H-thieno[3,2-c]pyrazole-5-carboxamide] | < 0.1 µM |  | 
CN1CCN(c2ccc(C(=O)Nc3n[nH]c4cc(C(=O)NCc5ccccc5)sc34)cc2)CC1 [Compound 91, N-benzyl-3-{[4-(4-methylpiperazin-1-yl)benzoyl]amino}-1H-thieno[3,2-c]pyrazole-5-carboxamide] |  | < 0.5 µM | 
O=C(Nc1n[nH]c2cc(C(=O)NCc3ccc(Cl)cc3)sc12)c1ccc(N2CCOCC2)cc1 [Compound 134, N-(4-chlorobenzyl)-3-[(4-morpholin-4-ylbenzoyl)amino]-1H-thieno[3,2-c]pyrazole-5-carboxamide] | < 0.1 µM |  | 
CCCCNC(=O)c1cc2[nH]nc(NC(=O)C3CC3)c2s1 [Compound 86, N-butyl-3-[(cyclopropylcarbonyl)amino]-1H-thieno[3,2-c]pyrazole-5-carboxamide] |  |  | < 0.5 µM
CN1CCN(c2ccc(C(=O)Nc3n[nH]c4cc(C(=O)NCc5cccc(F)c5)sc34)cc2)CC1 [Compound 94, N-(3-fluorobenzyl)-3-{[4-(4-methylpiperazin-1-yl)benzoyl]amino}-1H-thieno[3,2-c]pyrazole-5-carboxamide] | < 0.1 µM |  | 
